The values below come from US8785470B2, “Heterocyclic compounds and uses thereof” (Infinity Pharmaceuticals, Inc., priority 2011, dated 2014).

The structures appear in SMILES notation. Read-outs that look alike come from different tables or passages of the source.

The target in one assay is T1, PI3Kα (Homo sapiens, UniProt P42336).
T1 construct: purchased Millipore Corporation 14-602-K
The experiment in a line: PI3-Kinase HTRF assay, PI3Kα. It counts as biochemical. The settings on record: bins Greater than 10 μM and Greater than 1 μM to 10 μM; 10 μM ATP, PIP2 at 10 μM; read-out: IC50 P13Kα. The source says:
A PI3-Kinase HTRF® assay kit (cat No. 33-016) purchased from Millipore Corporation was used to screen compounds provided herein. This assay used specific, high affinity binding of the GRPI pleckstrin homology (PH) domain to PIP3, the product of a Class 1A or 1B PI3 Kinase acting on its physiological substrate PIP2. During the detection phase of the assay, a complex was generated between the GST-tagged PH domain and biotinylated short chain PIP3. The biotinylated PIP3 and the GST-tagged PH domain recruited fluorophores (Streptavidin-Allophycocyanin and Europium-labeled anti-GST respectively) to form the fluorescence resonance energy transfer (FRET) architecture, generating a stable time-resolved FRET signal. The FRET complex was disrupted in a competitive manner by non-biotinylated PIP3, a product formed in the PI3 Kinase assay.
PI3 Kinase α, β, γ and δ activity was assayed using the PI3 Kinase HTRF® assay kit (catalogue No. 33-016) purchased from Millipore Corporation. Purified recombinant PI3Kα (catalogue No. 14-602-K), PI3Kβ (catalogue No. 14-603-K), PI3Kγ (catalogue No. 14-558-K) and PI3Kδ (catalogue No. 14-604-K) were obtained from Millipore Corporation. Purified recombinant PI3K enzyme was used to catalyze the phosphorylation of phosphatidylinositol 4,5-bisphosphate (PIP2 at 10 μM) to phosphatidylinositol 3,4,5-trisphosphate (PIP3) in the presence of 10 μM ATP. The assay was carried out in 384-well format and detected using a Perkin Elmer EnVision Xcite Multilabel Reader. Emission ratios were converted into percent inhibitions and imported into GraphPad Prism software. The concentration necessary to achieve inhibition of enzyme activity by 50% (IC50) was calculated using concentrations ranging from 20 μM to 0.1 nM (12-point curve). IC50 values were determined using a nonlinear regression model available in GraphPad Prism 5. […]

The subject of the next assay is Balb/c splenic B cells. In words: B cell activation and proliferation assay. It counts as cell-based. The settings on record: Mus musculus, read-out: B cell proliferation EC50. On the procedure:
The ability of one or more subject compounds to inhibit B cell activation and proliferation is determined according to standard procedures known in the art. For example, an in vitro cellular proliferation assay is established that measures the metabolic activity of live cells. The assay is performed in a 96 well microtiter plate using Alamar Blue reduction. Balb/c splenic B cells are purified over a Ficoll-Paque™ PLUS gradient followed by magnetic cell separation using a MACS B cell Isolation Kit (Miletenyi). Cells are plated in 90 μl at 50.000 cells/well in B Cell Media (RPMI+10% FBS+Penn/Strep+50 μME5 mM HEPES). A compound provided herein is diluted in B Cell Media and added in a 10 μl volume. Plates are incubated for 30 min at 37° C. and 5% CO2 (0.2% DMSO final concentration). A 50 μl B cell stimulation cocktail is then added containing either 10 μg/ml LPS or 5 μg/ml F(ab′)2 Donkey anti-mouse IgM plus 2 ng/ml recombinant mouse IL4 in B Cell Media. Plates are incubated for 72 hours at 37° C. and 5% CO2. A volume of 15 μL of Alamar Blue reagent is added to each well and plates are incubated for 5 hours at 37° C. and 5% CO2. Alamar Blue fluoresce is read at 560Ex/590Em, and IC50 or EC50 values are calculated using GraphPad Prism 5.

Setting [1] is: column bins 1 μM to 100 nM (given as 100-1000) and Less than 100 nM.

T1 sequence (P42336 whole entry): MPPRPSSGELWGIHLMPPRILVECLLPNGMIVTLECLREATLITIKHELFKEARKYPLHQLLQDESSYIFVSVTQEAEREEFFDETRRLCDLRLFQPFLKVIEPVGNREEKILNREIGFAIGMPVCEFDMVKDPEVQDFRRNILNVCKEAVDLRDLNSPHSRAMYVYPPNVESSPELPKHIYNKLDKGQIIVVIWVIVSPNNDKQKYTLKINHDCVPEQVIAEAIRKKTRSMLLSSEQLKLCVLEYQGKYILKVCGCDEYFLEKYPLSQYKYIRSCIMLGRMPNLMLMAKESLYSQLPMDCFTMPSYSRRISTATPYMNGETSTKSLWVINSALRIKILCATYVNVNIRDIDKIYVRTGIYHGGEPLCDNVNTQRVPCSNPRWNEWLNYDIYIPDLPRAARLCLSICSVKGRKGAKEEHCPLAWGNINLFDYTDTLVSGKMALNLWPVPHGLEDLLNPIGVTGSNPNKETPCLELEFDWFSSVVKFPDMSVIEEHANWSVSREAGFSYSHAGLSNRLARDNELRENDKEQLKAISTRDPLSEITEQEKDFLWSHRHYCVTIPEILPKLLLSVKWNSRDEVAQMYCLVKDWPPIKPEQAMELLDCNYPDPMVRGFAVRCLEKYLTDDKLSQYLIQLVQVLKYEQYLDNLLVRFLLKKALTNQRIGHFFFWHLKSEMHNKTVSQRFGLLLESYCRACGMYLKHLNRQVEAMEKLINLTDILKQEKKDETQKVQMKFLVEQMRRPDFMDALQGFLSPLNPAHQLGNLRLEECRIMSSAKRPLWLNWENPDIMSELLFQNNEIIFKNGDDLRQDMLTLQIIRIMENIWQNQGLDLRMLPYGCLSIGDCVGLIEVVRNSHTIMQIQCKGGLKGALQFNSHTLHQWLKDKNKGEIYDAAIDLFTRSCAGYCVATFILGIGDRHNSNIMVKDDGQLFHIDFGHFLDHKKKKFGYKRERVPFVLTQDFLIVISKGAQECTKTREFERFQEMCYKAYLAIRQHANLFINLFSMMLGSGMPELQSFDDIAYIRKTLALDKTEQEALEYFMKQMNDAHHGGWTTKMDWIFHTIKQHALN
T1 sequence (P27986 whole entry partner): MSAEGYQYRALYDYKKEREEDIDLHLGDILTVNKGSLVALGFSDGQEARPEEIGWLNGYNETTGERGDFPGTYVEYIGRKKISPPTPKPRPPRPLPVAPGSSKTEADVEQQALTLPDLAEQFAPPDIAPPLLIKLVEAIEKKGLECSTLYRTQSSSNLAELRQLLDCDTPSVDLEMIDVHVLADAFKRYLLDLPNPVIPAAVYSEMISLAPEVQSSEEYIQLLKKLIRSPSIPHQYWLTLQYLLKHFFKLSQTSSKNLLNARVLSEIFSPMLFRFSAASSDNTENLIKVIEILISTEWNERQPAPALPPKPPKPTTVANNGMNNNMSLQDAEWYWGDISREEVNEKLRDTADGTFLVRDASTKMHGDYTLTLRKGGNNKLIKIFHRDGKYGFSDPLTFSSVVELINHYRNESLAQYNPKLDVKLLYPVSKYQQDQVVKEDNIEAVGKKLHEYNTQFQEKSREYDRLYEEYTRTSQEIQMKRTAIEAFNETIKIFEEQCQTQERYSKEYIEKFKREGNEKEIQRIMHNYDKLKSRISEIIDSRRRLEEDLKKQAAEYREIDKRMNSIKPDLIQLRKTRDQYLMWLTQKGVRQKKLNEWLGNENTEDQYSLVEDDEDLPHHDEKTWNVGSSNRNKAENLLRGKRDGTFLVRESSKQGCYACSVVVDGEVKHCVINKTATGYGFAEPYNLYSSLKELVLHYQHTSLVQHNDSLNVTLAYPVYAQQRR

A word on the IC50: it is the concentration at which inhibition is half-maximal. As for `C[C@H](Nc1nc(N)ncc1C#N)c1cc2cccc(Cl)c2c(=O)n1-c1ccccc1` [Compound 8, (S)-2-amino-4-((1-(8-chloro-1-oxo-2-phenyl-1,2-dihydroisoquinolin-3-yl)ethyl)amino)pyrimidine-5-carbonitrile], the IC50 on PI3Kα lay in the range of 1000 to 10000 nM. Moreover, the EC50 in the assay on Balb/c splenic B cells (setting [1]) is below 100 nM.

In the case of `COc1cncc(-c2cccc3cc([C@H](C)Nc4nc(N)ncc4C#N)n(-c4ccccc4)c(=O)c23)c1` [Compound 9, (S)-2-amino-4-((1-(8-(5-methoxypyridin-3-yl)-1-oxo-2-phenyl-1,2-dihydroisoquinolin-3-yl)ethyl)amino)pyrimidine-5-carbonitrile], the EC50 in the assay on Balb/c splenic B cells (setting [1]) was below 100 nM.

As to `COc1ncc(-c2cccc3cc([C@H](C)Nc4nc(N)ncc4C(F)(F)F)n(-c4ccccc4)c(=O)c23)cn1` [Compound 12], the EC50 in the assay with Balb/c splenic B cells (setting [1]) is below 100 nM.

On to `Cc1cccc2cc([C@H](C)Nc3nc(N)ncc3C#N)n(-c3cccc(F)c3)c(=O)c12` [Compound 15], for which, on PI3Kα, the IC50 was 1000 to 10000 nM. Moreover, in the assay with Balb/c splenic B cells (setting [1]), the EC50 is below 100 nM.

In the case of `C[C@H](Nc1nc(N)ncc1C#N)c1cc2cccc(Cl)c2c(=O)n1-c1cccc(F)c1` [Compound 18], the IC50 at PI3Kα lay within 1000 to 10000 nM. The EC50 in the assay with Balb/c splenic B cells (setting [1]) is below 100 nM.

For the compound `Cc1ncc(-c2cccc3cc([C@H](C)Nc4nc(N)ncc4C#N)n(-c4cccc(F)c4)c(=O)c23)cn1` [Compound 20], at PI3Kα, the IC50 was in the range of 1000 to 10000 nM. The EC50 with Balb/c splenic B cells (setting [1]) was below 100 nM.

As to `COc1ncc(-c2cccc3cc([C@H](C)Nc4nc(N)ncc4C#N)n(-c4cccc(F)c4)c(=O)c23)cn1` [Compound 22], the EC50 with Balb/c splenic B cells (setting [1]) was below 100 nM.

Consider `C[C@H](Nc1nc(N)ncc1C#N)c1cc2cccc(-c3cnc4[nH]ccc4c3)c2c(=O)n1-c1cccc(F)c1` [Compound 25], for which, in the assay on Balb/c splenic B cells (setting [1]), the EC50 is below 100 nM.

With `COc1ncc(-c2cccc3cc([C@H](C)Nc4nc(N)ncc4C(F)(F)F)n(-c4cccc(F)c4)c(=O)c23)cn1` [Compound 31], the EC50 with Balb/c splenic B cells (setting [1]) is below 100 nM.

`C[C@H](Nc1nc(N)ncc1C#N)c1cc2cccc(-c3cccc(F)c3)c2c(=O)n1-c1ccccc1` [Compound 33]: the IC50 at PI3Kα fell in the range of 1000 to 10000 nM.

For the compound `Cc1ccc(-c2cccc3cc([C@H](C)Nc4nc(N)ncc4C#N)n(-c4ccccc4)c(=O)c23)cn1` [Compound 41], at PI3Kα, the IC50 fell in the range of 1000 to 10000 nM. Moreover, the EC50 with Balb/c splenic B cells (setting [1]) was below 100 nM.

Turning to `C[C@H](Nc1nc(N)ncc1C#N)c1cc2cccc(-c3cnc4[nH]ccc4c3)c2c(=O)n1-c1ccccc1` [Compound 47], the EC50 in the assay on Balb/c splenic B cells (setting [1]) was below 100 nM.

In the case of `C[C@H](Nc1nc(N)ncc1C#N)c1cc2cccc(-c3cnc4ccccc4c3)c2c(=O)n1-c1ccccc1` [Compound 50], the EC50 in the assay on Balb/c splenic B cells (setting [1]) is below 100 nM.

Turning to `Cc1ncc(-c2cccc3cc([C@H](C)Nc4nc(N)ncc4C#N)n(-c4ccccc4)c(=O)c23)cn1` [Compound 55], the IC50 on PI3Kα was in the range of 1000 to 10000 nM. In the assay on Balb/c splenic B cells (setting [1]), the EC50 is below 100 nM.

On to `Cc1ncc(-c2cccc3nc([C@H](C)Nc4nc(N)ncc4C#N)n(-c4ccccc4)c(=O)c23)cn1` [Compound 63, (S)-2-amino-4-((1-(5-(2-methylpyrimidin-5-yl)-4-oxo-3-phenyl-3,4-dihydroquinazolin-2-yl)ethyl)amino)pyrimidine-5-carbonitrile], for which the EC50 in the assay with Balb/c splenic B cells (setting [1]) was below 100 nM.

With `COc1cncc(-c2cccc3nc([C@H](C)Nc4nc(N)ncc4C#N)n(-c4ccccc4)c(=O)c23)c1` [Compound 65], the IC50 at PI3Kα is 1000 to 10000 nM.

Take `Nc1nccc(Cl)n1` [Compound 79, 2-amino-4-chloro-pyrimidine]: the EC50 with Balb/c splenic B cells (setting [1]) was below 100 nM.

Turning to `Cc1nc(N)nc(N[C@@H](C)c2cc3cccc(Cl)c3c(=O)n2-c2ccccc2)c1C#N` [Compound 89, (S)-2-amino-4-(1-(8-chloro-1-oxo-2-phenyl-1,2-dihydroisoquinolin-3-yl)ethylamino)-6-methylpyrimidine-5-carbonitrile], in the assay with Balb/c splenic B cells (setting [1]), the EC50 was below 100 nM.

Regarding `Cc1cc(N[C@@H](C)c2cc3cccc(Cl)c3c(=O)n2-c2ccccc2)nc(N)n1` [Compound 92, (S)-3-(1-((2-amino-6-methylpyrimidin-4-yl)amino)ethyl)-8-chloro-2-phenylisoquinolin-1(2H)-one], the EC50 in the assay with Balb/c splenic B cells (setting [1]) lay within 100 to 1000 nM.

On to `C[C@H](Nc1nc(N)ncc1C#N)c1cc2cccc(-c3cncc(N(C)C)c3)c2c(=O)n1-c1ccccc1` [Compound 96], for which the EC50 with Balb/c splenic B cells (setting [1]) was below 100 nM.

Take `COc1cncc(-c2cccc3cc([C@H](C)Nc4nc(N)ncc4C#N)n(C4CC4)c(=O)c23)c1` [Compound 106]: the EC50 in the assay with Balb/c splenic B cells (setting [1]) was below 100 nM.

In the case of `COc1cc(-c2cccc3cc([C@H](C)Nc4nc(N)ncc4C#N)n(C4CC4)c(=O)c23)ccn1` [Compound 107], in the assay with Balb/c splenic B cells (setting [1]), the EC50 is below 100 nM.

Take `COc1cc(-c2cccc3cc([C@H](C)Nc4nc(N)ncc4C(=O)N(C)C)n(-c4ccccc4)c(=O)c23)ccn1` [Compound 112]: in the assay with Balb/c splenic B cells (setting [1]), the EC50 is below 100 nM.

`C[C@H](Nc1ncnc(N)c1[N+](=O)[O-])c1cc2cccc(Cl)c2c(=O)n1-c1ccccc1` [Compound 129]: the EC50 in the assay with Balb/c splenic B cells (setting [1]) is below 100 nM.

Turning to `C[C@H](Nc1nc(N)ncc1C#N)c1cc2cccc(-c3ccnc(O)c3)c2c(=O)n1-c1ccccc1` [Compound 130], the EC50 in the assay with Balb/c splenic B cells (setting [1]) is below 100 nM.

Consider `COc1cc(-c2cccc3cc([C@H](C)Nc4nc(N)ncc4-c4cccnc4)n(-c4ccccc4)c(=O)c23)ccn1` [Compound 133], for which the IC50 on PI3Kα lay in the range of 1000 to 10000 nM.

As to `C[C@H](Nc1nc(N)ncc1C#N)c1cc2cccc(Oc3ccccc3)c2c(=O)n1-c1ccccc1` [Compound 151], the EC50 in the assay with Balb/c splenic B cells (setting [1]) was below 100 nM.

With `COc1cc(-c2cccc3cc([C@H](C)Nc4nc(N)ncc4-c4ccc(O)c(F)c4)n(-c4ccccc4)c(=O)c23)ccn1` [Compound 159], in the assay on Balb/c splenic B cells (setting [1]), the EC50 is below 100 nM.

For `COc1cc(-c2cccc3cc([C@H](C)Nc4nc(N)ncc4-c4cc(O)cc(F)c4)n(-c4ccccc4)c(=O)c23)ccn1` [Compound 161], the EC50 with Balb/c splenic B cells (setting [1]) lay within 100 to 1000 nM.

Regarding `COc1cc(-c2cccc3cc([C@H](C)Nc4nc(N)ncc4-c4ccc(F)c(O)c4)n(-c4ccccc4)c(=O)c23)ccn1` [Compound 163], the EC50 in the assay with Balb/c splenic B cells (setting [1]) is 100 to 1000 nM.

Turning to `C[C@H](Nc1nc(N)ncc1C#N)c1cc2cccc(C#CCCC(=O)N3CCOCC3)c2c(=O)n1-c1ccccc1` [Compound 193], the EC50 in the assay on Balb/c splenic B cells (setting [1]) was below 100 nM.

`C[C@H](Nc1nc(N)ncc1C(=O)N1CCC1)c1cc2cccc(-c3cnn(C)c3)c2c(=O)n1-c1ccccc1` [Compound 204]: in the assay on Balb/c splenic B cells, the EC50 was 1000 to 10000 nM.

Take `COc1nc(-c2cnc(N)nc2N[C@@H](C)c2cc3cccc(Cl)c3c(=O)n2-c2ccccc2)cs1` [Compound 223]: the EC50 in the assay with Balb/c splenic B cells was below 100 nM.

As to `C[C@H](Nc1nc(N)ncc1C#N)c1cc2cccc(Cl)c2c(=O)n1-c1ccc(F)cc1F` [Compound 255], the IC50 at PI3Kα lay in the range of 1000 to 10000 nM.

As to `C[C@H](Nc1nc(N)ncc1C#N)c1cc2cccc(Cl)c2c(=O)n1-c1cc(F)ccc1F` [Compound 264], at PI3Kα, the IC50 was 1000 to 10000 nM.

As for `C[C@H](Nc1nc(N)ncc1C#N)c1cc2cccc(Cl)c2c(=O)n1-c1ccccc1F` [Compound 267], at PI3Kα, the IC50 fell in the range of 1000 to 10000 nM.

Regarding `C[C@H](Nc1nc(N)ncc1C#N)c1cc2cccc(Cl)c2c(=O)n1C1CCCC1` [Compound 297], the EC50 with Balb/c splenic B cells (setting [1]) is below 100 nM.

Turning to `C[C@H](Nc1nc(N)ncc1C#N)c1cc2cccc(Cl)c2c(=O)n1-c1cccnc1` [Compound 306], the EC50 in the assay on Balb/c splenic B cells (setting [1]) was below 100 nM.

In the case of `Cc1ncc(-c2cnc(N)nc2N[C@@H](C)c2cc3cccc(Cl)c3c(=O)n2-c2ccccc2)s1` [Compound 372], the EC50 with Balb/c splenic B cells (setting [1]) was below 100 nM.

Take `COc1cc(-c2cccc3cc([C@@H](C)Nc4nc(N)ncc4C#N)n(-c4ccccc4)c(=O)c23)ccn1` [Compound 380]: the EC50 in the assay with Balb/c splenic B cells (setting [1]) is below 100 nM.

Take `C[C@H](Nc1cc(N)ncc1C(N)=O)c1cc2cccc(Cl)c2c(=O)n1-c1ccccc1` [Compound 431]: in the assay on Balb/c splenic B cells (setting [1]), the EC50 is below 100 nM.

Regarding `COc1cc(-c2cccc3cc([C@H](C)Nc4nc(N)ncc4C(=O)N4CC(F)(F)C4)n(-c4ccccc4)c(=O)c23)ccn1` [Compound 432], the EC50 in the assay with Balb/c splenic B cells (setting [1]) was 100 to 1000 nM.
